Measurements from ChEMBL document CHEMBL1155876 (J Med Chem, 2008).

Assays:
[1] = target: Casein kinase II subunit alpha (Homo sapiens) (UniProt P68400); experiment: Inhibition of human CK2 kinase assessed as residual enzyme activity at 0.1 uM
[2] = target: Tyrosine-protein kinase Blk (Homo sapiens) (UniProt P51451); experiment: Inhibition of human Blk kinase assessed as residual enzyme activity at 0.1 uM
[3] = target: Mitogen-activated protein kinase 1 (Homo sapiens) (UniProt P28482); experiment: Inhibition of human MAPK1 kinase assessed as residual enzyme activity at 0.1 uM
[4] = target: Cyclin-dependent kinase 3 (Homo sapiens) (UniProt Q00526); experiment: Inhibition of CDK3/CyclinE assessed as residual enzyme activity at 1 uM
Sequence of Cyclin-dependent kinase 3 (Homo sapiens) (Q00526 whole entry, looked up): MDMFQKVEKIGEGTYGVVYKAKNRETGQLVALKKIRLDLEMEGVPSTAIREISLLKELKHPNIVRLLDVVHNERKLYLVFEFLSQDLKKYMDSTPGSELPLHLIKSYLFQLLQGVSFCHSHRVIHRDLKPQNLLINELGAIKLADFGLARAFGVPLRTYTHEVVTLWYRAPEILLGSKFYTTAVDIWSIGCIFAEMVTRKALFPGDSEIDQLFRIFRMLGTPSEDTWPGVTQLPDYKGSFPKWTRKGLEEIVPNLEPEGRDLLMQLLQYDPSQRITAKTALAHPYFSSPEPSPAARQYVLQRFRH

[5] = target: Serine/threonine-protein kinase MRCK alpha (Homo sapiens) (UniProt Q5VT25); experiment: Inhibition of human MRCKalpha kinase assessed as residual enzyme activity at 0.1 uM
Sequence of Serine/threonine-protein kinase MRCK alpha (Homo sapiens) (Q5VT25 whole entry, canonical isoform): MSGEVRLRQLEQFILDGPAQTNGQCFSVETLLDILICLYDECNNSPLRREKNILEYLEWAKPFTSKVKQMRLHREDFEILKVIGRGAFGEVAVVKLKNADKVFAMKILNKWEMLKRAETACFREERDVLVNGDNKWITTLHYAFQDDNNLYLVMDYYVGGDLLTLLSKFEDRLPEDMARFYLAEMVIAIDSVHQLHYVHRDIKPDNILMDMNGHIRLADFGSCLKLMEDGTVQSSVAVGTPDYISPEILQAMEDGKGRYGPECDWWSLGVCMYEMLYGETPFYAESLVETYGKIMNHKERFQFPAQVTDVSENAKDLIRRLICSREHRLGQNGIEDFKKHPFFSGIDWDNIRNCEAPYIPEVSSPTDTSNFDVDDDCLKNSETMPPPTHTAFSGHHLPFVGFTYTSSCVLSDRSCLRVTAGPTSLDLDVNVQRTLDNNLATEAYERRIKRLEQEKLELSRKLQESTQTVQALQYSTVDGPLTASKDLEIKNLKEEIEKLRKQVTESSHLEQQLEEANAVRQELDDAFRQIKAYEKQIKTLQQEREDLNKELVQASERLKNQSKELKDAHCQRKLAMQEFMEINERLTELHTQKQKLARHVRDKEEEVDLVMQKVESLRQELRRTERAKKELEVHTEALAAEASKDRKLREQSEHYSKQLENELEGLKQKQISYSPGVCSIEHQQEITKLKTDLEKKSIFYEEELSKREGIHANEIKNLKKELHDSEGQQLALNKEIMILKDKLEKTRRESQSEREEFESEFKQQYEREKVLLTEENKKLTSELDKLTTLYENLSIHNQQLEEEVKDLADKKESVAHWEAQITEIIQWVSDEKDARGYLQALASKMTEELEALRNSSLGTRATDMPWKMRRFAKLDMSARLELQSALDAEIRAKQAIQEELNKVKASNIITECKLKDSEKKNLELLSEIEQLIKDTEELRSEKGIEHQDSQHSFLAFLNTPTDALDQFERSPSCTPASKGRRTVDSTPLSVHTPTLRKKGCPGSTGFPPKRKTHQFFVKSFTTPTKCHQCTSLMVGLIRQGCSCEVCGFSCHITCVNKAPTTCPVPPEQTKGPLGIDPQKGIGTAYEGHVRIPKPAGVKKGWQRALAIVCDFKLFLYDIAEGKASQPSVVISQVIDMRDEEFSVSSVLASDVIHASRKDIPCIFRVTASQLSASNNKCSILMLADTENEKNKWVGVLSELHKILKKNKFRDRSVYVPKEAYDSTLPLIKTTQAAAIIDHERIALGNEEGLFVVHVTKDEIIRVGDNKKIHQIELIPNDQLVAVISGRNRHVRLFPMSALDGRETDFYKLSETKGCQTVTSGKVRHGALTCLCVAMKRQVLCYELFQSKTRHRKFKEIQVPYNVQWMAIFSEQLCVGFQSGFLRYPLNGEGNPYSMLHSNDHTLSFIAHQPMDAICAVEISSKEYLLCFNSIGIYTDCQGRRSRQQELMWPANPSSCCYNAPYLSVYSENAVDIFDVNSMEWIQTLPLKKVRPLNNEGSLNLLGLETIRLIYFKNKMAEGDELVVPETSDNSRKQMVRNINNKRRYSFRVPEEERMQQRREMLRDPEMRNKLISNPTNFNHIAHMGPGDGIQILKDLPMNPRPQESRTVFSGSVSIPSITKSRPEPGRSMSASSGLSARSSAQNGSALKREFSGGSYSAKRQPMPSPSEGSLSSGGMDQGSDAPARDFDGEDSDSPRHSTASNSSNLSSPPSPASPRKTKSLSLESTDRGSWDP

[6] = target: Casein kinase I isoform delta (Homo sapiens) (UniProt P48730); experiment: Inhibition of human CK1delta kinase assessed as residual enzyme activity at 0.1 uM
Sequence of Casein kinase I isoform delta (Homo sapiens) (P48730 whole entry, looked up, canonical isoform): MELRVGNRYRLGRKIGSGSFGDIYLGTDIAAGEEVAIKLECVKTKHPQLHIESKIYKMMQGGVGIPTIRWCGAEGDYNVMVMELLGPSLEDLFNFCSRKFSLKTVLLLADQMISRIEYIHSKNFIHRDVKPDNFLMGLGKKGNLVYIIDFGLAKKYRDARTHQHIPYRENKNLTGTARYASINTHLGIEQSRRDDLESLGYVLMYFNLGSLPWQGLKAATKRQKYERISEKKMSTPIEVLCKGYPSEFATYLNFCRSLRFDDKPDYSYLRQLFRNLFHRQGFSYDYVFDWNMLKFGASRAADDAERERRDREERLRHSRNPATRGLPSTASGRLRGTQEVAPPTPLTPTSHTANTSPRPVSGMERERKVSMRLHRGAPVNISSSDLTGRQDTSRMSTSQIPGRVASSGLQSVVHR

[7] = target: Tyrosine-protein kinase ABL1 (Homo sapiens) (UniProt P00519); experiment: Inhibition of Abl at assessed as residual enzyme activity at 1 uM
Sequence of Tyrosine-protein kinase ABL1 (Homo sapiens) (P00519 whole entry): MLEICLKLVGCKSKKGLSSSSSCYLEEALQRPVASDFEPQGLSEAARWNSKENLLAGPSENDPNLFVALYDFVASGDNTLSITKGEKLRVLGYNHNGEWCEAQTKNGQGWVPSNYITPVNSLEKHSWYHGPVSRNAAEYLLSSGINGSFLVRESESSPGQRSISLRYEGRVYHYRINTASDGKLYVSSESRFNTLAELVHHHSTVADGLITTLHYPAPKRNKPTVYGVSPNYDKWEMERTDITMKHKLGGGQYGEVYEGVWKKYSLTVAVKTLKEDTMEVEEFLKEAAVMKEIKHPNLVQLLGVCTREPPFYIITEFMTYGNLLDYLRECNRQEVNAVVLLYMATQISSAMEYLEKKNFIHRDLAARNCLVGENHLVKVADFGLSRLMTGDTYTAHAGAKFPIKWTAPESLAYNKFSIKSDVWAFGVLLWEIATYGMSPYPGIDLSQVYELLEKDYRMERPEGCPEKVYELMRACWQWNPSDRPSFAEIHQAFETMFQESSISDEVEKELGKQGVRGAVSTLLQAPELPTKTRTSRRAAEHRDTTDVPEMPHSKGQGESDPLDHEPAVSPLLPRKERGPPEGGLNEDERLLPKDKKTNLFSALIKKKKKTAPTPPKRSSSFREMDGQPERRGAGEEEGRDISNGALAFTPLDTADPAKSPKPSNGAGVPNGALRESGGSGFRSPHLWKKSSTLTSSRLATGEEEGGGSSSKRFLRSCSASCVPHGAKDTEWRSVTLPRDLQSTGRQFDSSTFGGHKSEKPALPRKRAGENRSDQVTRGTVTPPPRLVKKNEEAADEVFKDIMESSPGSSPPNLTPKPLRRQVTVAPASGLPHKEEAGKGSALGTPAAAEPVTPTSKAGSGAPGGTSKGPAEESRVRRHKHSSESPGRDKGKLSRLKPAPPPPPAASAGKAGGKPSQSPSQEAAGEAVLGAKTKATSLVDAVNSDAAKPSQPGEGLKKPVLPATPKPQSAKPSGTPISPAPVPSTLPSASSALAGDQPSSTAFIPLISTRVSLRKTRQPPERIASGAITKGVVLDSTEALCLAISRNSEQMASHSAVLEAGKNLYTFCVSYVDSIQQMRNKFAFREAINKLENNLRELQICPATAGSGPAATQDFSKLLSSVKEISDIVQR

[8] = target: Serine/threonine-protein kinase MARK2 (Homo sapiens) (UniProt Q7KZI7); experiment: Inhibition of human PAR-1Balpha kinase assessed as residual enzyme activity at 0.1 uM
Sequence of Serine/threonine-protein kinase MARK2 (Homo sapiens) (Q7KZI7 whole entry): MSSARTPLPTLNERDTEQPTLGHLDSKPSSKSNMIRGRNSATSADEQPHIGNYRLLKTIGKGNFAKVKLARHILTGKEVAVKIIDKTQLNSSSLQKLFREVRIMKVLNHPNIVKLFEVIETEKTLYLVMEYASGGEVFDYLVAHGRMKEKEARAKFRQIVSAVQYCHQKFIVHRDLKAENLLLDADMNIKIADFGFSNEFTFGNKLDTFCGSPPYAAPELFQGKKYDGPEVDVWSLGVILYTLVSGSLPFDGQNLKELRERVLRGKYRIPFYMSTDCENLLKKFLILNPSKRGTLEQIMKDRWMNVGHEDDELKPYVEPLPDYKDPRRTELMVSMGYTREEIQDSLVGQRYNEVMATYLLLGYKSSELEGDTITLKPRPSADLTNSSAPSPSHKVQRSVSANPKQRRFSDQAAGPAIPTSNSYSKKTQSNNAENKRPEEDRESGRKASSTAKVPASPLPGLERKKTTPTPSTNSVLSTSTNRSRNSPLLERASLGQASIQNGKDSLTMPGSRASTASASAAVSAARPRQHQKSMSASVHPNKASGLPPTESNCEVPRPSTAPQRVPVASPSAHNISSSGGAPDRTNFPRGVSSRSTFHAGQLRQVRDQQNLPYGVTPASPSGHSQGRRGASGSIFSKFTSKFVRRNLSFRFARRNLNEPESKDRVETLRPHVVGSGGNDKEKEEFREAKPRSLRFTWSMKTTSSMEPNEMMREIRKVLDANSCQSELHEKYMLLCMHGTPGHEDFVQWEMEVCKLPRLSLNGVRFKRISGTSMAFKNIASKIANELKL

Sequence of Casein kinase II subunit alpha (Homo sapiens) (P68400 whole entry, looked up): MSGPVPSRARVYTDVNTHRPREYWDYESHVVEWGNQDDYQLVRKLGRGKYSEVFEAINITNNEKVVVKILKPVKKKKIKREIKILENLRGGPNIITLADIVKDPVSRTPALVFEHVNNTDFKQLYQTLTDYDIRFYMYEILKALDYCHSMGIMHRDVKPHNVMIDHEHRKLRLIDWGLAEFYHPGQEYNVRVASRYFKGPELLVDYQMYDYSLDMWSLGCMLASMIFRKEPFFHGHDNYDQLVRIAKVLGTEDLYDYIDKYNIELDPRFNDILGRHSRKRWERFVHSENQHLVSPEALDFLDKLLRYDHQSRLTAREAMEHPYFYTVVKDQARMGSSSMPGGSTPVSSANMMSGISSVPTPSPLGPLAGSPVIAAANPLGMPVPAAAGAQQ

Activity [1]: 104%
Activity [2]: 62%
Activity [3]: 112%
Activity [4]: 106%
Activity [5]: 98%
Activity [6]: 96%
Activity [7]: 10%
Activity [8]: 42%
SMILES: CCN1C(=O)C(C)(C)c2cc3[nH]c4c(c3cc21)CCCc1c(C)n[nH]c1-4
